Assay results published in US20250223306A1, “TEAD INHIBITORS AND METHODS OF USE” (Sporos BioDiscovery, Inc., priority 2022, published 2025).

Legend:
NCI-H226 cells [1] = assay: Proliferation, Cell Titer One assay; format: cell-based; details: 6 days
Experimental: (§1) Cell proliferation of a TEAD dependent NF2-null mesothelioma cell line, NCI-H226, and a TEAD-non-dependent mesothelioma cell line, NCI-H28 was assayed using two different protocols: • a) CellTiter-Glo 2.0 (Promega #G9243). The effect of the TEAD inhibitors disclosed herein on cell proliferation was determined in TEAD1-genetically dependent cell line NCI-H226 (responder cell line) and TEAD-independent cell lines (NCI-H23, HEK293T), as non-responder, negative control. Cells were seeded in 96-well plates (Thermo Scientific #167008) in growth media (RPMI-1640, Gibco #61870-010) for NCI-H226 and NCI-H23 or DMEM (Gibco #31966-021, HEK293T) with 10% Heat Inactivated Fetal Bovine Serum (Gibco 10500-064) at 800 (NCI-H226 and HEK-293T) or 2000 (NCI-H23) cells per well at 37° C., 5% CO2, humidified incubator; 24 hours later, fresh growth media containing test compound or DMSO vehicle was added and incubated with the cells for 144 hrs. TEAD inhibitor stocks were made at a 1000× fold excess in DMSO, and a dose response test compound dose range of 10,000 to 0.1 nM was used. Each treatment was carried out in triplicate. After 144 hrs of treatment, relative cell viability numbers were determined using the CellTiter-Glo 2.0 assay following the manufacturer's instructions. Test plates and CellTiter-Glo 2.0 reagent were allowed to equilibrate to room temperature. CellTiter-Glo 2.0 reagent was added at 1:1 reagent to media ratio to the 96-well cell plates, plates were placed on a plate shaker for 2 minutes and then incubated at room temperature for a further 10 minutes to allow complete cell lysis to occur. The mix was then transferred to white, 96-well luminometer assay plates (Greiner Bio One #655075). Luminescence was quantified using a CLARIOStar Plus multi-mode plate reader (BMG Labtech) in luminescence detection mode with the recommended settings (ultra-Glo pre-set: emission 545-50 nm with autofocus and enhanced dynamic range on). Relative cell density was expressed as a function of inhibitor concentration, with respect to DMSO-only control wells. Data where plotted using GraphPad Prism and IC50 values for the biological effect were calculated using the EC50 non-linear fit function using a sigmoidal, 4-parameter logistic, least squares fit with no constraints. • b) Cell Titer One (Promega, #G3582). The effect of the TEAD inhibitors disclosed herein on cell proliferation was also determined using the Promega Substrate Cell Titer Aqueous One Solution Reagent. The TEAD inhibitors were evaluated for the effects on cell proliferation responder (H226) and non-responder negative control cancer cell lines (CAMA1, H28), as well as non-transformed normal human cells (HUVEC, NHDF). Dissociated cells were resuspend in media (depending on cell line, either in DMEM, RPMI, or EMEM all with 10% FBS, with gentamicin as an antibiotic). Cells were seeded at 100 μL/well at 750 cells per well in 96-well plates and allowed to settle and attach. After an incubation of 24 hrs (37° C., 5% CO2, humidified incubator), 100 μL of test compound-containing media was added. A dilution series of 2000× concentrated stock of test compounds was prepared in DMSO, for final concentrations from 0.1 to 10,000 nM. After addition of test compound-containing media, cells were incubated for 6 days at 37° C., 5% CO2, humidified incubators). To measure cell density, 20 μL of Promega Substrate Cell Titer 96 Aqueous One Solution Reagent (Promega, #G3582) to each well was added according to the manufacturer's instructions. Plates were incubated at 37° C. for usually 3-8 hrs, to reach in the control cells (without compound) an OD of 1.5 at 490 nm. The OD was measured using Vmax [Molecular Devices] spectrophotometer plate reader. Media only-wells were used as background controls and cell densities normalized to DMSO vehicle control. ECs were taken as the concentration achieving 50% of maximal growth inhibition.

NCI-H226 cells [2] = assay: Proliferation and cell viability, CellTiter-Glo 2.0 (CTG) assay; format: cell-based; details: 144 hrs
Experimental: as §1

NCI-H23 cells = assay: as above; format: cell-based; details: 144 hrs
Experimental: as §1

TEAD2 = TEAD2 (Homo sapiens, UniProt Q15562); assay: TEAD thermal shift assay (TSA); format: binding
Sequence of TEAD2 (Q15562 whole entry): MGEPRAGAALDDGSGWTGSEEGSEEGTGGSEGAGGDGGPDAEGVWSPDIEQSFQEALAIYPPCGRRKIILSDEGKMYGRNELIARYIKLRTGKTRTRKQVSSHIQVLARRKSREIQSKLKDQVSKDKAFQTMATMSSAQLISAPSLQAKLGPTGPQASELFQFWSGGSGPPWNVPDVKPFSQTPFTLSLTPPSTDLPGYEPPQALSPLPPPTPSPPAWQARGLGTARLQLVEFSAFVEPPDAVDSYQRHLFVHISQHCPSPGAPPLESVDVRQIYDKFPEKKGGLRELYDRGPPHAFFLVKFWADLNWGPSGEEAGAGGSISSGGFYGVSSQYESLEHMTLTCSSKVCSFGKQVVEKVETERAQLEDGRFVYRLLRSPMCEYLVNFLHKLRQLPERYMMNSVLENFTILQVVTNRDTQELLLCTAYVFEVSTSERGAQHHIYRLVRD
Source text: (§2) Thermal shift assay (TSA) is a biophysical method to evaluate stability of proteins with change in temperature. The assay measures thermal denaturation temperature in varying conditions such as different drug concentration. For this example, fluorogenic dye was used that bind to unfolded proteins. SYPRO Orange binds non-specifically to hydrophobic surfaces, and water strongly quenches its fluorescence. When the protein unfolds, the exposed hydrophobic surfaces bind the dye, resulting in an increase in fluorescence by excluding water. Detergent micelles also bind the dye and increase background noise dramatically. Binding of small molecules to proteins leads to a stabilization against to thermal denaturation with the degree of thermal stabilization proportional to the strength of binding.
(§3) The study described in this example investigated the change in melting temperature (ΔTm) of TEAD isoforms 1˜4 when treated with TEAD inhibitors. Compound 1-1-a known strong TEAD1 and weak TEAD2 inhibitor; as well as Compound 1-4-a pan-TEAD inhibitor were used as controls.
(§4) Tris-HCL was dissolved in 5 mL of Cell culture grade water and allowed to dissolve completely. The pH was adjusted to 8 using NaOH. Additional assay buffer components were added in the order listed above. The buffer was mixed slowly.
(§5) Assay buffer was prepared according to the procedures outlined above and dispensed into test wells. Spyro orange was added to a concentration of 5× in the assay buffer, followed by test compound stock solution which was added to a concentration of 10 μM or 30 μM in the assay buffer.
(§6) The melt cycle was performed in Bio-RAD PCR instrument from 20-95° C. with ramp rate of 1° C./min.

TEAD1 = TEAD1 (Homo sapiens, UniProt P28347); assay: TEAD thermal shift assay (TSA); format: binding
Sequence of TEAD1 (P28347 whole entry): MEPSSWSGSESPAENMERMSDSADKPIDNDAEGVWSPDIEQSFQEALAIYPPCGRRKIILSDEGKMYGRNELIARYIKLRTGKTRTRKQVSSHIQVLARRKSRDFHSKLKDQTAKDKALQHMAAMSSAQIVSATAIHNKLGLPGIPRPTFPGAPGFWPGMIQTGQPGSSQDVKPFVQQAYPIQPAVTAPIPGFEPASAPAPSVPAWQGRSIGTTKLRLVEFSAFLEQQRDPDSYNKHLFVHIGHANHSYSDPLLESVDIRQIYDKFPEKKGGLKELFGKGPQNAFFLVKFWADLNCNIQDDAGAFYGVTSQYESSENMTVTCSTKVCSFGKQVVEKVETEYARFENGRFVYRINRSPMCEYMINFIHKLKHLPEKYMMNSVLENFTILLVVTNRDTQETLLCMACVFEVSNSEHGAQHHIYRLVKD
Source text: as §2, §3, §4, §5, §6

TEAD4 = TEAD4 (Homo sapiens, UniProt Q15561); assay: TEAD thermal shift assay (TSA); format: binding
Sequence of TEAD4 (Q15561 whole entry): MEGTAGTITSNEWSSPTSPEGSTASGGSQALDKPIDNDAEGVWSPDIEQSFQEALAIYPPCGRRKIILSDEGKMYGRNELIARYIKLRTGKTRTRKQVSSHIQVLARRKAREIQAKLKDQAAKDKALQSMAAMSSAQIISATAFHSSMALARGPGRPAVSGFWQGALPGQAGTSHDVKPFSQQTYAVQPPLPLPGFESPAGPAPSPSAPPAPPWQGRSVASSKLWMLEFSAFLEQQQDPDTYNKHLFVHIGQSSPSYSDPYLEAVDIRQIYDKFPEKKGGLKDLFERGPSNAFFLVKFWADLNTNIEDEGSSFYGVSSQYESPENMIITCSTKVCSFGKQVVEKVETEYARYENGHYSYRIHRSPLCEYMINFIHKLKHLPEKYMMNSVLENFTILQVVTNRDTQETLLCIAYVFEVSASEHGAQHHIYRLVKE
Source text: as §2, §3, §4, §5, §6

TEAD3 = TEAD3 (Homo sapiens, UniProt Q99594); assay: TEAD thermal shift assay (TSA); format: binding
Sequence of TEAD3 (Q99594 whole entry): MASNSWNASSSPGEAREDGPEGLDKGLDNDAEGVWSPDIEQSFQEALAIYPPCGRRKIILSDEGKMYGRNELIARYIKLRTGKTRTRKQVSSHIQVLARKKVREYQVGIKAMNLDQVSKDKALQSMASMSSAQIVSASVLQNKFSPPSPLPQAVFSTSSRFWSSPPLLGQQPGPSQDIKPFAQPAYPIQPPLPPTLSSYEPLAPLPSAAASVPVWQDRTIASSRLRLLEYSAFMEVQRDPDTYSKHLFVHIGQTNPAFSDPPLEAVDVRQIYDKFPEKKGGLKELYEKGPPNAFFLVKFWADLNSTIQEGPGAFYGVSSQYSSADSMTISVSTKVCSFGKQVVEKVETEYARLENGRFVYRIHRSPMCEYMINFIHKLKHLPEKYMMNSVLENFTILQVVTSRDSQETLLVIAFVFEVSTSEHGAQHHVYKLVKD
Source text: as §2, §3, §4, §5, §6

[3] = Homo sapiens, NCI-H226, 144 h, H226-responder cell line
[4] = Homo sapiens, NCI-H23, H23-non-responder cell line
[5] = ratio of protein to compound 1:1
[6] = ratio of protein to compound 1:3

Structure (SMILES) | IC50 (NCI-H226 cells [1]; Homo sapiens, NCI-H226, 144 h) | IC50 (NCI-H226 cells [2]; [3]) | also measured
O=C(NCc1ncco1)c1cnc2c(C3=CCC(C(F)(F)F)CC3)cccc2c1 (single isomer, unassigned) [Compound 12, N-(oxazol-2-ylmethyl)-8-(4-(trifluoromethyl)cyclohex-1-en-1-yl)quinoline-3-carboxamide] | 200 to 1000 nM | < 200 nM | IC50 (NCI-H23 cells; [4]): > 1000 nM
O=C(NCc1ncco1)c1cnc2c(C3=CCC(C(F)(F)F)CC3)cccc2c1 (single isomer, unassigned) [Compound 13, N-(oxazol-2-ylmethyl)-8-(4-(trifluoromethyl)cyclohex-1-en-1-yl)quinoline-3-carboxamide] |  |  | IC50 (NCI-H226 cells [1]): < 200 nM; IC50 (NCI-H226 cells [2]; H226-responder cell line): < 200 nM; IC50 (NCI-H23 cells; H23-non-responder cell line): > 1000 nM
C[C@H](NC(=O)c1ccc2c(-c3ccc(C(F)(F)F)cc3)cccc2c1)c1cccc(N)n1 [Compound 1-4, reference compound] |  |  | TEAD2 ΔTm (TEAD2; [5]): 5 °C; TEAD2 ΔTm (TEAD2; [6]): 7 °C; TEAD1 ΔTm (TEAD1; [5]): 10 °C; TEAD1 ΔTm (TEAD1; [6]): 12 °C; thermal shift / binding across TEAD isoforms, in words (TEAD1; summary of Table 14 over TEAD1-4): thermal shifts for all four TEAD isoforms; TEAD4 ΔTm (TEAD4; [5]): 5 °C; TEAD4 ΔTm (TEAD4; [6]): 9 °C; TEAD3 ΔTm (TEAD3; [5]): 5 °C; TEAD3 ΔTm (TEAD3; [6]): 9 °C
O=C(NCc1ccccn1)c1cnc2c(C3=CCC(C(F)(F)F)CC3)cccc2c1 (stereo not shown) [Compound 5, N-(pyridin-2-ylmethyl)-8-(4-(trifluoromethyl)cyclohex-1-en-1-yl)quinoline-3-carboxamide] | < 200 nM | < 200 nM | IC50 (NCI-H23 cells; [4]): > 1000 nM
CC(C)NC(=O)c1cnc2c(C3=CCC(F)(F)CC3)cccc2c1 [Compound 26, 8-(4,4-difluorocyclohex-1-en-1-yl)-N-isopropylquinoline-3-carboxamide] | < 200 nM |  | IC50 (NCI-H226 cells [2]; Homo sapiens, NCI-H226, H226-responder cell line): < 200 nM
C[C@H](NC(=O)c1cnc2c(C3=CCC(F)(F)CC3)cccc2c1)c1ccccn1 [Compound 27, (S)-8-(4,4-difluorocyclohex-1-en-1-yl)-N-(1-(pyridin-2-yl)ethyl)quinoline-3-carboxamide] | < 200 nM | < 200 nM | 
O=C(NCc1ncco1)c1cnc2c(C3=CCC(F)(F)CC3)cccc2c1 [Compound 29, 8-(4,4-difluorocyclohex-1-en-1-yl)-N-(oxazol-2-ylmethyl)quinoline-3-carboxamide] | > 1000 nM | 200 to 1000 nM | 
CC(C)NC(=O)c1cnc2c(C3=CCC(C)(C)CC3)cccc2c1 [Compound 30, 8-(4,4-dimethylcyclohex-1-en-1-yl)-N-isopropylquinoline-3-carboxamide] | < 200 nM | < 200 nM | 
C[C@H](NC(=O)c1cnc2c(C3=CCC(C)(C)CC3)cccc2c1)c1ccccn1 [Compound 31, (S)-8-(4,4-dimethylcyclohex-1-en-1-yl)-N-(1-(pyridin-2-yl)ethyl)quinoline-3-carboxamide] | > 1000 nM | < 200 nM | 
C[C@H](NC(=O)c1cnc2c(C3=CCCCC3)cccc2c1)c1ccccn1 [Compound 35, (S)-8-(cyclohex-1-en-1-yl)-N-(1-(pyridin-2-yl)ethyl)quinoline-3-carboxamide] | 200 to 1000 nM |  | 
C[C@@H](CO)NC(=O)c1cnc2c(C3=CCCCC3)cccc2c1 [Compound 36, (S)-8-(cyclohex-1-en-1-yl)-N-(1-hydroxypropan-2-yl)quinoline-3-carboxamide] | > 1000 nM |  | 
O=C(NCc1ncco1)c1cnc2c(C3=CCCCC3)cccc2c1 [Compound 37, 8-(cyclohex-1-en-1-yl)-N-(oxazol-2-ylmethyl)quinoline-3-carboxamide] | > 1000 nM |  | 
CNC(=O)c1cnc2c(C3=CCC(C(F)(F)F)CC3)cccc2c1 (stereo not shown) [Compound 38, N-methyl-8-(4-(trifluoromethyl)cyclohex-1-en-1-yl)quinoline-3-carboxamide] | 200 to 1000 nM | < 200 nM | 
O=C(NCCO)c1cnc2c(C3=CCC(C(F)(F)F)CC3)cccc2c1 (stereo not shown) [Compound 39, N-(2-hydroxyethyl)-8-(4-(trifluoromethyl)cyclohex-1-en-1-yl)quinoline-3-carboxamide] | < 200 nM | < 200 nM | 
COCCNC(=O)c1cnc2c(C3=CCC(C(F)(F)F)CC3)cccc2c1 (stereo not shown) [Compound 40, N-(2-methoxyethyl)-8-(4-(trifluoromethyl)cyclohex-1-en-1-yl)quinoline-3-carboxamide] | 200 to 1000 nM | < 200 nM | 
